Target: Prothrombin (Homo sapiens, UniProt P00734)
Assay: Inhibition of thrombin (unknown origin)

Row | Structure (SMILES) | Ki
1 | N=C(N)c1ccc(CNC(=O)CN2C(=O)C(NS(=O)(=O)c3ccc4c(c3)CCO4)CCc3ccccc32)cc1 (configuration not stated) | 15.8 nM
2 | COc1ccc(OC)c(S(=O)(=O)NC2CCCCN(CC(=O)NCc3ccc(C(=N)N)cc3)C2=O)c1 (configuration not stated) | 10 nM

Reference: ChEMBL document CHEMBL2380282, “CROSS: an efficient workflow for reaction-driven rescaffolding and side-chain optimization using robust chemical reactions and available reagents” (J Med Chem, 2013)
